This passage reports EC50 and IC50 results from patent US20160002204A1 (Board of Regents, The University of Texas System, priority 2014, published 2016).

Experiment [1] deals with A549 cells. Nature of the experiment: A549 proliferation (viability) assay, Cell Titer Fluor, 72 hours. The settings on record: Homo sapiens. The experiment is classed as cell-based. Put shortly:
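1000 A549 cells/well, RPMI 1640/10% dialyzed FBS, 24 h attach; compound 72 h, 0.5% DMSO, 37 °C/5% CO2; Cell Titer Fluor fluorescence; EC50 via 4-parameter logistic.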

Experiment [2] concerns the target T1, GLS1 (purified recombinant human GAC) (Homo sapiens, UniProt O94925).
T1 sequence (O94925 55-598 isoform O94925-3 limits assumed): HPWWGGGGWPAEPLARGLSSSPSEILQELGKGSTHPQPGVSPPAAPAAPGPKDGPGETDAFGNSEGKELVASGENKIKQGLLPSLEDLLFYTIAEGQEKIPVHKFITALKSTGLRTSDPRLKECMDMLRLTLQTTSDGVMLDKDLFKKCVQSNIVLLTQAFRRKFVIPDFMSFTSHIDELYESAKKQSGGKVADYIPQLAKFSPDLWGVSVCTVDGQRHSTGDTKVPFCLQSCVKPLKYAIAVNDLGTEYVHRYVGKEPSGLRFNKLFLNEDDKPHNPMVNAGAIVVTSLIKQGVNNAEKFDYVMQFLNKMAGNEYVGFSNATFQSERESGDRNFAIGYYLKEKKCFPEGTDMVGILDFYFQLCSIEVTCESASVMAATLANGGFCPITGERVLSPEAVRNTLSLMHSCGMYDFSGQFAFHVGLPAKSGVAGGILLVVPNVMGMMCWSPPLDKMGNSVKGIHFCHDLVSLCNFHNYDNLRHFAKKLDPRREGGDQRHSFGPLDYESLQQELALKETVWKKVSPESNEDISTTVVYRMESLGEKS
Nature of the experiment: GLS1 enzymatic activity assay (dual-coupled, Amplex UltraRed/resorufin). In kind it is biochemical. Put shortly: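 GAC activity measured by coupling glutamate to glutamate oxidase and HRP, generating resorufin from Amplex UltraRed. Enzyme (2 nM) preincubated with 50 mM potassium phosphate 10 min at room temperature, then inhibitor 10 min; 1 mM glutamine substrate, 1% DMSO. Fluorescence 530/590 nm, kinetic or 20-min endpoint; IC50 from four-parameter logistic fit.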

The term EC50 denotes the concentration at which the effect is half-maximal. The low end stands for higher potency in that assay, the high end for lower potency in that assay. As usually defined, the IC50 is the point on the concentration scale where inhibition reaches its midpoint. In turn, `Cc1ccc(CNC(=O)c2cn(CC(F)CCn3ccc(NC(=O)CC4CCCC4)cc3=O)nn2)cn1` (stereo not drawn) [Example 199, 1-{4-[4-(2-cyclopentylacetamido)-2-oxo-1,2-dihydropyridin-1-yl]-2-fluorobutyl}-N-[(6-methylpyridin-3-yl)methyl]-1H-1,2,3-triazole-4-carboxamide] had an EC50 in experiment [1] of under 100 nM. Moreover, the IC50 in experiment [2] was under 100 nM.

Consider `O=C(Nc1ccn(CCC(F)Cn2cc(C(=O)NCc3cc(C(F)(F)F)ccn3)nn2)c(=O)n1)OC1CCC(F)(F)CC1` (stereo not drawn) [Example 495, 4,4-difluorocyclohexyl N-(1-{3-fluoro-4-[4-({[4-(trifluoromethyl)pyridin-2-yl]methyl}carbamoyl)-1H-1,2,3-triazol-1-yl]butyl}-2-oxo-1,2-dihydropyrimidin-4-yl)carbamate], for which, in experiment [1], the EC50 was in the range of 500 to 5000 nM. The IC50 in experiment [2] was under 100 nM.

In experiment [1], `O=C(Nc1ccn(CCCCn2cc(C(=O)NCc3ccccn3)nn2)c(=O)c1)OCc1ccccc1` [Example 57, benzyl N-[2-oxo-1-(4-{4-[(pyridin-2-ylmethyl)carbamoyl]-1H-1,2,3-triazol-1-yl}butyl)-1,2-dihydropyridin-4-yl]carbamate] yielded an EC50 of 500 to 5000 nM. Moreover, the IC50 in experiment [2] was in the range of 100 to 500 nM.

`Cc1ccc(CNC(=O)c2cn(CCCCn3ccc(NC(=O)Cc4ccccc4)cc3=O)nn2)cn1` [Example 158, N-[(6-methylpyridin-3-yl)methyl]-1-{4-[2-oxo-4-(2-phenylacetamido)-1,2-dihydropyridin-1-yl]butyl}-1H-1,2,3-triazole-4-carboxamide] gave an EC50 in experiment [1] of 500 to 5000 nM. The IC50 in experiment [2] is under 100 nM.

On to `O=C(CN1CCCCC1)Nc1ccn(CCC(F)Cn2cc(C(=O)NCc3cncc(C(F)(F)F)c3)nn2)c(=O)c1F` (stereo not drawn) [Example 351, 1-(2-fluoro-4-{3-fluoro-2-oxo-4-[2-(piperidin-1-yl)acetamido]-1,2-dihydropyridin-1-yl}butyl)-N-{[5-(trifluoromethyl)pyridin-3-yl]methyl}-1H-1,2,3-triazole-4-carboxamide], for which, in experiment [1], the EC50 was under 100 nM. Moreover, the IC50 in experiment [2] was under 100 nM.

With `O=C(CC1CCC(F)(F)CC1)Nc1ccn(CCCCn2cc(C(=O)NCc3cccc(OC(F)(F)F)c3)nn2)c(=O)c1` [Example 166, 1-(4-{4-[2-(4,4-difluorocyclohexyl)acetamido]-2-oxo-1,2-dihydropyridin-1-yl}butyl)-N-{[3-(trifluoromethoxy)phenyl]methyl}-1H-1,2,3-triazole-4-carboxamide], the EC50 in experiment [1] was under 100 nM. The IC50 in experiment [2] was under 100 nM.

Molecule `O=C(CN1CCC(F)(F)CC1)Nc1ccn(CCC(F)Cn2cc(C(=O)NCc3cccc(OC(F)(F)F)c3)nn2)c(=O)c1F` (stereo not drawn) [Example 290, 1-(4-{4-[2-(4,4-difluoropiperidin-1-yl)acetamido]-3-fluoro-2-oxo-1,2-dihydropyridin-1-yl}-2-fluorobutyl)-N-{[3-(trifluoromethoxy)phenyl]methyl}-1H-1,2,3-triazole-4-carboxamide] came in with an EC50 in experiment [1] of under 100 nM. In experiment [2], the IC50 is under 100 nM.

`C[C@@H](NC(=O)Nc1ccn(CCCCc2ccc(NC(=O)Cc3ccccc3)nn2)c(=O)n1)c1ccccc1` [Example 89, N-(6-{4-[2-oxo-4-({[(1R)-1-phenylethyl]carbamoyl}amino)-1,2-dihydropyrimidin-1-yl]butyl}pyridazin-3-yl)-2-phenylacetamide] yielded an EC50 in experiment [1] of over 5000 nM. For the same molecule, in experiment [2], the IC50 was in the range of 100 to 500 nM.

`O=C(Cc1ccccc1)Nc1ccc(CCCCn2ccc(NC(=O)Oc3ccccc3)nc2=O)nn1` [Example 97, phenyl N-(2-oxo-1-{4-[6-(2-phenylacetamido)pyridazin-3-yl]butyl}-1,2-dihydropyrimidin-4-yl)carbamate] had an EC50 in experiment [1] of over 5000 nM. For the same molecule, the IC50 in experiment [2] is 100 to 500 nM.

For `O=C(Cc1cccc(OC(F)(F)F)c1)Nc1ccn(CCCCc2nnc(NC(=O)Cc3cccnc3)s2)c(=O)n1` [Example 81, N-[2-oxo-1-(4-{5-[2-(pyridin-3-yl)acetamido]-1,3,4-thiadiazol-2-yl]butyl)-1,2-dihydropyrimidin-4-yl]-2-[3-(trifluoromethoxy)phenyl]acetamide], in experiment [1], the EC50 lay within 500 to 5000 nM. For the same molecule, the IC50 in experiment [2] was under 100 nM.

`O=C(CC1CCCC1)Nc1ccn(CCC(F)Cn2cc(C(=O)NCc3cccc(OC(F)(F)F)c3)nn2)c(=O)c1F` (stereo not drawn) [Example 355, 1-{4-[4-(2-cyclopentylacetamido)-3-fluoro-2-oxo-1,2-dihydropyridin-1-yl]-2-fluorobutyl}-N-{[3-(trifluoromethoxy)phenyl]methyl}-1H-1,2,3-triazole-4-carboxamide] gave an EC50 in experiment [1] of under 100 nM. Besides, in experiment [2], the IC50 was under 100 nM.

Consider `COC(=O)C1CCN(CC(=O)Nc2ccn(CCC(F)Cn3cc(C(=O)NCc4cccc(OC(F)(F)F)c4)nn3)c(=O)c2)CC1` (stereo not drawn) [Example 273, methyl 1-{[(1-{3-fluoro-4-[4-({[3-(trifluoromethoxy)phenyl]methyl}carbamoyl)-1H-1,2,3-triazol-1-yl]butyl}-2-oxo-1,2-dihydropyridin-4-yl)carbamoyl]methyl}piperidine-4-carboxylate], for which the EC50 in experiment [1] fell in the range of 500 to 5000 nM. In experiment [2], the IC50 is under 100 nM.

In experiment [1], `O=C(NCc1ccc(C(F)(F)F)nc1)c1cn(CC(F)CCn2ccc(NC(=O)C3CCCC3)c(F)c2=O)nn1` (stereo not drawn) [Example 370, 1-[4-(4-cyclopentaneamido-3-fluoro-2-oxo-1,2-dihydropyridin-1-yl)-2-fluorobutyl]-N-{[6-(trifluoromethyl)pyridin-3-yl]methyl}-1H-1,2,3-triazole-4-carboxamide] came in with a half-maximal effective concentration (EC50) of 100 to 500 nM. Moreover, the IC50 in experiment [2] was in the range of 100 to 500 nM.

With `CC(C)(C)OC(=O)N1CCN(CC(=O)Nc2ccn(CCC(F)Cn3cc(C(=O)NCc4cccc(OC(F)(F)F)c4)nn3)c(=O)c2)CC1` (stereo not drawn) [Example 271, tert-butyl 4-{[(1-{3-fluoro-4-[4-({[3-(trifluoromethoxy)phenyl]methyl}carbamoyl)-1H-1,2,3-triazol-1-yl]butyl}-2-oxo-1,2-dihydropyridin-4-yl)carbamoyl]methyl}piperazine-1-carboxylate], the EC50 in experiment [1] was under 100 nM. The IC50 in experiment [2] is under 100 nM.

In experiment [1], `O=C(Cc1ccccc1)Nc1ccc(CCCCn2ccc(NC(=O)Cc3cccc(OC(F)(F)F)c3)nc2=O)nn1` [Example 99, N-{6-[4-(2-oxo-4-{2-[3-(trifluoromethoxy)phenyl]acetamido}-1,2-dihydropyrimidin-1-yl)butyl]pyridazin-3-yl}-2-phenylacetamide] gave an EC50 of under 100 nM. Further, the IC50 in experiment [2] is under 100 nM.

Molecule `O=C(CC1CCC1)Nc1ccn(CCC(F)Cn2cc(C(=O)NCc3ccc(OC(F)(F)F)cn3)nn2)c(=O)c1F` (stereo not drawn) [Example 389, 1-{4-[4-(2-cyclobutylacetamido)-3-fluoro-2-oxo-1,2-dihydropyridin-1-yl]-2-fluorobutyl}-N-{[5-(trifluoromethoxy)pyridin-2-yl]methyl}-1H-1,2,3-triazole-4-carboxamide] registered an EC50 in experiment [1] of under 100 nM. Moreover, in experiment [2], the IC50 was under 100 nM.

`O=C(Cc1ccccc1)Nc1cnn(CCC(F)Cn2cc(C(=O)NCc3cccc(OC(F)(F)F)c3)nn2)c(=O)c1` (stereo not drawn) [Example 263, 1-{2-fluoro-4-[6-oxo-4-(2-phenylacetamido)-1,6-dihydropyridazin-1-yl]butyl}-N-{[3-(trifluoromethoxy)phenyl]methyl}-1H-1,2,3-triazole-4-carboxamide] gave an EC50 in experiment [1] of 100 to 500 nM. Also, the IC50 in experiment [2] was under 100 nM.

In experiment [1], `COCCOC(=O)Nc1ccn(CCCCc2ccc(NC(=O)Cc3cccc(OC(F)(F)F)c3)nn2)c(=O)n1` [Example 112, 2-methoxyethyl N-{2-oxo-1-[4-(6-{2-[3-(trifluoro-methoxy)phenyl]acetamido}pyridazin-3-yl)butyl]-1,2-dihydropyrimidin-4-yl}carbamate] came in with an EC50 of 100 to 500 nM. Moreover, the IC50 in experiment [2] was under 100 nM.

Regarding `O=C(Cc1ccccc1)Nc1ccn(CC[C@H](F)Cn2cc(C(=O)NCc3cccc(OC(F)(F)F)c3)nn2)c(=O)c1F` [Example 127], the EC50 in experiment [1] was under 100 nM. Also, the half-maximal inhibitory concentration (IC50) in experiment [2] was under 100 nM.

`O=C(NCc1cccc(OC(F)(F)F)c1)c1cn(CCCCn2ccc(NC(=O)C(F)c3ccccc3)cc2=O)nn1` (stereo not drawn) [Example 167, 1-{4-[4-(2-fluoro-2-phenylacetamido)-2-oxo-1,2-dihydropyridin-1-yl]butyl}-N-{[3-(trifluoromethoxy)phenyl]methyl}-1H-1,2,3-triazole-4-carboxamide] gave an EC50 in experiment [1] of under 100 nM. Moreover, the IC50 in experiment [2] was under 100 nM.

Consider `CCNC(=O)Nc1ccn(CCCCc2ccc(NC(=O)Cc3ccccc3)nn2)c(=O)n1` [Example 86, N-[6-(4-{4-[(ethylcarbamoyl)amino]-2-oxo-1,2-dihydropyrimidin-1-yl}butyl)pyridazin-3-yl]-2-phenylacetamide], for which, in experiment [1], the EC50 was over 5000 nM. For the same molecule, the IC50 in experiment [2] lay in the range of 500 to 5000 nM.
